Results taken from ChEMBL document CHEMBL1268977, “Efficient synthesis, spectral analysis and antimicrobial studies of nitrogen and sulfur containing spiro heterocycles from 2,4-diaryl-3-azabicyclo[3.3.1]nonan-9-ones” (2010).
Values after ≈ are worked out from the molar mass of the structure shown. Active and inactive are the calls of the source. The rule behind the calls is not given here.

Columns and labels:
[1] = system: Staphylococcus aureus; assay: Antibacterial activity against Staphylococcus aureus ATCC 25930 after 24 hrs by serial dilution method; type: functional; conditions: ATCC 25930, 24 h
[2] = system: Bacillus subtilis; assay: Antibacterial activity against Bacillus subtilis ATCC 530 after 24 hrs by serial dilution method; type: functional; conditions: ATCC 530, 24 h
[3] = system: Salmonella typhi; assay: Antibacterial activity against Salmonella typhi ATCC 25021 after 24 hrs by serial dilution method; type: functional, Salmonella enterica subsp. enterica serovar Typhi; conditions: Salmonella enterica, ATCC 25021, 24 h
[4] = system: Escherichia coli; assay: Antibacterial activity against Escherichia coli ATCC 26032 after 24 hrs by serial dilution method; type: functional; conditions: ATCC 26032, 24 h
[5] = system: Klebsiella pneumoniae; assay: Antibacterial activity against Klebsiella pneumoniae ATCC 16425 after 24 hrs by serial dilution method; type: functional; conditions: ATCC 16425, 24 h
[6] = system: Candida albicans; assay: Antifungal activity against Candida albicans ATCC 3430 after 72 to 96 hrs by serial dilution method; type: functional
[7] = system: Cryptococcus neoformans; assay: Antifungal activity against Cryptococcus neoformans ATCC 3235 after 72 to 96 hrs by serial dilution method; type: functional
[8] = system: Rhizopus; assay: Antifungal activity against Rhizopus species ATCC 2842 after 72 to 96 hrs by serial dilution method; type: functional
[9] = system: Aspergillus niger; assay: Antifungal activity against Aspergillus niger ATCC 635 after 72 to 96 hrs by serial dilution method; type: functional
[10] = system: Aspergillus flavus; assay: Antifungal activity against Aspergillus flavus ATCC 525 after 72 to 96 hrs by serial dilution method; type: functional
[11] = system: Aspergillus niger; assay: Antifungal activity against Aspergillus niger ATCC 635 at 200 ug/ml after 72 to 96 hrs by serial dilution method; type: functional, organism-based
[12] = system: Klebsiella pneumoniae; assay: Antibacterial activity against Klebsiella pneumoniae ATCC 16425 at 200 ug/ml after 24 hrs by serial dilution method; type: functional, organism-based
[13] = system: Bacillus subtilis; assay: Antibacterial activity against Bacillus subtilis ATCC 530 at 200 ug/ml after 24 hrs by serial dilution method; type: functional, organism-based

Compound | MIC [1] | MIC [2] | MIC [3] | MIC [4] | MIC [5] | MIC [6] | MIC [7] | MIC [8] | MIC [9] | MIC [10] | inhibition [11] | inhibition [12] | inhibition [13]
CC(=O)NC1=NN(C(C)=O)C2(S1)C1CCCC2C(c2cccc(F)c2)NC1c1cccc(F)c1 (stereo not given) | 50 µg/mL (≈ 103 µM) | 25 µg/mL (≈ 51.6 µM) | 6.25 µg/mL (≈ 12.9 µM) | 6.25 µg/mL (≈ 12.9 µM) | 6.25 µg/mL (≈ 12.9 µM) | 25 µg/mL (≈ 51.6 µM) | 25 µg/mL (≈ 51.6 µM) | 12.5 µg/mL (≈ 25.8 µM) | 25 µg/mL (≈ 51.6 µM) | 6.25 µg/mL (≈ 12.9 µM) |  |  | 
CC(=O)N(C1=NN(C(C)=O)C2(S1)C1CCCC2C(c2ccc(Cl)cc2)N(C(C)=O)C1c1ccc(Cl)cc1)c1ccccc1 (stereo not given) | 12.5 µg/mL (≈ 19.7 µM) | 25 µg/mL (≈ 39.3 µM) | 12.5 µg/mL (≈ 19.7 µM) | 25 µg/mL (≈ 39.3 µM) | 50 µg/mL (≈ 78.7 µM) | 100 µg/mL (≈ 157 µM) | 50 µg/mL (≈ 78.7 µM) | 12.5 µg/mL (≈ 19.7 µM) |  | 200 µg/mL (≈ 315 µM) | inactive |  | 
CC(=O)NC1=NN(C(C)=O)C2(S1)C1CCCC2C(c2ccc(C)cc2)NC1c1ccc(C)cc1 (stereo not given) | 25 µg/mL (≈ 52.4 µM) | 12.5 µg/mL (≈ 26.2 µM) | 100 µg/mL (≈ 210 µM) | 100 µg/mL (≈ 210 µM) | 12.5 µg/mL (≈ 26.2 µM) | 25 µg/mL (≈ 52.4 µM) | 50 µg/mL (≈ 105 µM) | 25 µg/mL (≈ 52.4 µM) | 50 µg/mL (≈ 105 µM) | 12.5 µg/mL (≈ 26.2 µM) |  |  | 
CCC(=O)NC1=NN(C(=O)CC)C2(S1)C1CCCC2C(c2cccc(F)c2)NC1c1cccc(F)c1 (stereo not given) | 100 µg/mL (≈ 195 µM) | 6.25 µg/mL (≈ 12.2 µM) | 6.25 µg/mL (≈ 12.2 µM) | 6.25 µg/mL (≈ 12.2 µM) | 50 µg/mL (≈ 97.5 µM) | 25 µg/mL (≈ 48.8 µM) | 25 µg/mL (≈ 48.8 µM) | 25 µg/mL (≈ 48.8 µM) | 12.5 µg/mL (≈ 24.4 µM) | 50 µg/mL (≈ 97.5 µM) |  |  | 
CC(=O)N(C1=NN(C(C)=O)C2(S1)C1CCCC2C(c2ccccc2Cl)NC1c1ccccc1Cl)c1ccccc1 (stereo not given) | 25 µg/mL (≈ 42.1 µM) | 12.5 µg/mL (≈ 21.1 µM) | 100 µg/mL (≈ 168 µM) | 50 µg/mL (≈ 84.2 µM) | 100 µg/mL (≈ 168 µM) | 6.25 µg/mL (≈ 10.5 µM) | 50 µg/mL (≈ 84.2 µM) | 25 µg/mL (≈ 42.1 µM) | 12.5 µg/mL (≈ 21.1 µM) | 100 µg/mL (≈ 168 µM) |  |  | 
CCC(=O)NC1=NN(C(=O)CC)C2(S1)C1CCCC2C(c2ccc(C)cc2)NC1c1ccc(C)cc1 (stereo not given) | 50 µg/mL (≈ 99.1 µM) | 100 µg/mL (≈ 198 µM) | 50 µg/mL (≈ 99.1 µM) | 25 µg/mL (≈ 49.5 µM) | 25 µg/mL (≈ 49.5 µM) | 25 µg/mL (≈ 49.5 µM) | 25 µg/mL (≈ 49.5 µM) | 50 µg/mL (≈ 99.1 µM) | 100 µg/mL (≈ 198 µM) | 200 µg/mL (≈ 396 µM) |  |  | 
COc1ccc(C2C3CCCC(C(c4ccc(OC)cc4)N2C(C)=O)C32SC(NC(C)=O)=NN2C(C)=O)cc1 (stereo not given) | 25 µg/mL (≈ 45.4 µM) | 50 µg/mL (≈ 90.8 µM) | 50 µg/mL (≈ 90.8 µM) | 50 µg/mL (≈ 90.8 µM) | 25 µg/mL (≈ 45.4 µM) | 25 µg/mL (≈ 45.4 µM) | 25 µg/mL (≈ 45.4 µM) | 100 µg/mL (≈ 182 µM) |  | 12.5 µg/mL (≈ 22.7 µM) | inactive |  | 
CCC(=O)NC1=NN(C(=O)CC)C2(S1)C1CCCC2C(c2cccc(OC)c2)N(C(=O)CC)C1c1cccc(OC)c1 (stereo not given) | 100 µg/mL (≈ 169 µM) | 50 µg/mL (≈ 84.4 µM) | 200 µg/mL (≈ 337 µM) | 50 µg/mL (≈ 84.4 µM) |  | 25 µg/mL (≈ 42.2 µM) | 200 µg/mL (≈ 337 µM) | 50 µg/mL (≈ 84.4 µM) |  | 25 µg/mL (≈ 42.2 µM) | inactive | inactive | 
C[C@@H]1[C@H](O)[C@@H](C)/C=C/C=C/C=C/C=C/C=C/C=C/C=C/[C@H](O[C@@H]2O[C@H](C)[C@@H](O)[C@H](N)[C@@H]2O)C[C@@H]2O[C@](O)(C[C@@H](O)C[C@@H](O)[C@H](O)CC[C@@H](O)C[C@@H](O)CC(=O)O[C@H]1C)C[C@H](O)[C@H]2C(=O)O [AMPHOTERICIN B] |  |  |  |  |  | 25 µg/mL (≈ 27.1 µM) | 25 µg/mL (≈ 27.1 µM) | 25 µg/mL (≈ 27.1 µM) | 50 µg/mL (≈ 54.1 µM) | 50 µg/mL (≈ 54.1 µM) |  |  | 
CCC(=O)NC1=NN(C(=O)CC)C2(S1)C1CCCC2C(c2ccc(OC)cc2)N(C(=O)CC)C1c1ccc(OC)cc1 (stereo not given) | 25 µg/mL (≈ 42.2 µM) |  | 25 µg/mL (≈ 42.2 µM) | 50 µg/mL (≈ 84.4 µM) | 25 µg/mL (≈ 42.2 µM) | 25 µg/mL (≈ 42.2 µM) | 50 µg/mL (≈ 84.4 µM) | 100 µg/mL (≈ 169 µM) | 25 µg/mL (≈ 42.2 µM) | 100 µg/mL (≈ 169 µM) |  |  | inactive
